Test results from PubChem BioAssay (NCI).
Where “and” joins values, the source holds several entries; their conditions need not be identical. Identical values can stand only once.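 Grown in 96-well plates, cells were treated for 48 hours with each compound at five concentrations. Insufficient inhibition: endpoint recorded as highest concentration tested. Here, GI50 denotes the concentration required for 50% inhibition of growth. TGI: total growth inhibition.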

Columns and labels:
Test in all cases: NCI anticancer screen, dose series, 48 h
786-0 renal = system: 786-0 renal
A498 renal = system: A498 renal
A549 NSCLC = system: A549 NSCLC
ACHN renal = system: ACHN renal
BT-549 breast = system: BT-549 breast
CAKI-1 renal = system: CAKI-1 renal
CCRF-CEM leukemia = system: CCRF-CEM leukemia
COLO 205 colon = system: COLO 205 colon
DU-145 prostate = system: DU-145 prostate
EKVX NSCLC = system: EKVX NSCLC
HCC-2998 colon = system: HCC-2998 colon
HCT-116 colon = system: HCT-116 colon
HCT-15 colon = system: HCT-15 colon
HL-60(TB) leukemia = system: HL-60(TB) leukemia
HOP-62 NSCLC = system: HOP-62 NSCLC
HOP-92 NSCLC = system: HOP-92 NSCLC
HS 578T breast = system: HS 578T breast
HT29 colon = system: HT29 colon
IGROV1 ovarian = system: IGROV1 ovarian
K-562 leukemia = system: K-562 leukemia
KM12 colon = system: KM12 colon
LOX IMVI melanoma = system: LOX IMVI melanoma
M14 melanoma = system: M14 melanoma
MALME-3M melanoma = system: MALME-3M melanoma
MCF7 breast = system: MCF7 breast
MDA-MB-231 breast = system: MDA-MB-231 breast
MDA-MB-435 = system: MDA-MB-435
MOLT-4 leukemia = system: MOLT-4 leukemia
NCI-H226 lung = system: NCI-H226 lung
NCI-H23 lung = system: NCI-H23 lung
NCI-H460 lung = system: NCI-H460 lung
NCI-H522 lung = system: NCI-H522 lung
NCI/ADR-RES ovarian = system: NCI/ADR-RES ovarian
OVCAR-3 ovarian = system: OVCAR-3 ovarian
OVCAR-4 ovarian = system: OVCAR-4 ovarian
OVCAR-5 ovarian = system: OVCAR-5 ovarian
OVCAR-8 ovarian = system: OVCAR-8 ovarian
PC-3 prostate = system: PC-3 prostate
RPMI-8226 leukemia = system: RPMI-8226 leukemia
RXF 393 renal = system: RXF 393 renal
SF-268 CNS = system: SF-268 CNS
SF-295 CNS = system: SF-295 CNS
SF-539 CNS = system: SF-539 CNS
SK-MEL-2 melanoma = system: SK-MEL-2 melanoma
SK-MEL-28 melanoma = system: SK-MEL-28 melanoma
SK-MEL-5 melanoma = system: SK-MEL-5 melanoma
SK-OV-3 ovarian = system: SK-OV-3 ovarian
SN12C renal = system: SN12C renal
SNB-19 CNS = system: SNB-19 CNS
SNB-75 CNS = system: SNB-75 CNS
SR leukemia = system: SR leukemia
SW-620 colon = system: SW-620 colon
T-47D breast = system: T-47D breast
TK-10 renal = system: TK-10 renal
U251 CNS = system: U251 CNS
UACC-257 melanoma = system: UACC-257 melanoma
UACC-62 melanoma = system: UACC-62 melanoma
UO-31 renal = system: UO-31 renal

CC(C)Nc1cc(-c2c[nH]c(C(=O)N[C@H](CO)c3cccc(Cl)c3)c2)c(Cl)cn1
GI50 (786-0 renal): 2.85 µM and 3.23 µM | TGI (786-0 renal): 18.3 µM and > 10 µM | GI50 (A498 renal): 0.084 µM and 0.255 µM | TGI (A498 renal): 1.41 µM and 1.95 µM | GI50 (A549 NSCLC): 2.33 µM and 0.919 µM | TGI (A549 NSCLC): 20.3 µM and > 10 µM | GI50 (ACHN renal): 2.24 µM and 2.08 µM | TGI (ACHN renal): 14.9 µM and > 10 µM | GI50 (BT-549 breast): 3.19 µM and > 5.25 µM | TGI (BT-549 breast): 15.7 µM and > 10 µM | GI50 (CAKI-1 renal): 1.17 µM and 1.87 µM | TGI (CAKI-1 renal): 19.1 µM and > 10 µM | GI50 (CCRF-CEM leukemia): 4.09 µM and 4.7 µM | TGI (CCRF-CEM leukemia): > 100 µM | GI50 (COLO 205 colon): 0.104 µM and 0.076 µM | TGI (COLO 205 colon): 3.06 µM and 1.59 µM | GI50 (DU-145 prostate): 5.96 µM and 9.49 µM | TGI (DU-145 prostate): 20.4 µM and > 10 µM | GI50 (EKVX NSCLC): 1.97 µM and 0.783 µM | TGI (EKVX NSCLC): 15.4 µM and > 10 µM | GI50 (HCC-2998 colon): 0.19 µM and 0.209 µM | TGI (HCC-2998 colon): 13.8 µM and > 10 µM | GI50 (HCT-116 colon): 0.154 µM and 0.162 µM | TGI (HCT-116 colon): 11.4 µM and > 10 µM | GI50 (HCT-15 colon): 2.89 µM and 2.68 µM | TGI (HCT-15 colon): 14.4 µM and > 10 µM | GI50 (HL-60(TB) leukemia): 0.378 µM and 0.272 µM | TGI (HL-60(TB) leukemia): 4.67 µM and > 10 µM | GI50 (HOP-62 NSCLC): 3.93 µM and 0.479 µM | TGI (HOP-62 NSCLC): 26.4 µM and > 10 µM | GI50 (HOP-92 NSCLC): 0.312 µM and 0.233 µM | TGI (HOP-92 NSCLC): 2.84 µM and 1.81 µM | GI50 (HS 578T breast): 4.32 µM and > 9.06 µM | TGI (HS 578T breast): 60.5 µM and > 10 µM | GI50 (HT29 colon): 0.0894 µM and 0.0951 µM | TGI (HT29 colon): 11.6 µM and > 10 µM | GI50 (IGROV1 ovarian): 0.516 µM and 0.366 µM | TGI (IGROV1 ovarian): 20.5 µM and > 10 µM | GI50 (K-562 leukemia): 3.35 µM | TGI (K-562 leukemia): > 10 µM | GI50 (KM12 colon): 0.751 µM and 0.444 µM | TGI (KM12 colon): 15.5 µM and > 10 µM | GI50 (LOX IMVI melanoma): 0.157 µM and 0.316 µM | TGI (LOX IMVI melanoma): 12.8 µM and > 10 µM | GI50 (M14 melanoma): 0.101 µM | TGI (M14 melanoma): > 2.58 µM | GI50 (MALME-3M melanoma): 0.0249 µM and 0.0475 µM | TGI (MALME-3M melanoma): 0.149 µM | GI50 (MCF7 breast): 2.16 µM and 1.62 µM | TGI (MCF7 breast): 19.1 µM and > 10 µM | GI50 (MDA-MB-231 breast): 1.67 µM and 1.02 µM | TGI (MDA-MB-231 breast): 13.6 µM and > 8.38 µM | GI50 (MDA-MB-435): 0.312 µM and 0.335 µM | TGI (MDA-MB-435): 14.9 µM and > 10 µM | GI50 (MOLT-4 leukemia): 2.55 µM and 2.57 µM | TGI (MOLT-4 leukemia): 19.6 µM and > 10 µM | GI50 (NCI-H226 lung): 3.17 µM and > 3.67 µM | TGI (NCI-H226 lung): 24.2 µM and > 10 µM | GI50 (NCI-H23 lung): 0.308 µM and 0.258 µM | TGI (NCI-H23 lung): 16 µM and > 10 µM | GI50 (NCI-H460 lung): 1.35 µM and 1.05 µM | TGI (NCI-H460 lung): 15.8 µM and > 10 µM | GI50 (NCI-H522 lung): 2.33 µM and 2.35 µM | TGI (NCI-H522 lung): 19.8 µM and > 10 µM | GI50 (NCI/ADR-RES ovarian): 5.57 µM and > 7.85 µM | TGI (NCI/ADR-RES ovarian): 24.4 µM and > 10 µM | GI50 (OVCAR-3 ovarian): 4.66 µM and > 9.46 µM | TGI (OVCAR-3 ovarian): 18.8 µM and > 10 µM | GI50 (OVCAR-4 ovarian): 3.68 µM and > 6.63 µM | TGI (OVCAR-4 ovarian): 20.7 µM and > 10 µM | GI50 (OVCAR-5 ovarian): 0.259 µM and 0.187 µM | TGI (OVCAR-5 ovarian): 16.2 µM and > 10 µM | GI50 (OVCAR-8 ovarian): 7.75 µM and 8.82 µM | TGI (OVCAR-8 ovarian): 24.3 µM and > 10 µM | GI50 (PC-3 prostate): 3.96 µM and > 5.54 µM | TGI (PC-3 prostate): 18.4 µM and > 10 µM | GI50 (RPMI-8226 leukemia): 3.09 µM and 1.14 µM | TGI (RPMI-8226 leukemia): 45.9 µM and > 10 µM | GI50 (RXF 393 renal): 2.14 µM and 1.06 µM | TGI (RXF 393 renal): 15 µM and > 10 µM | GI50 (SF-268 CNS): 4.46 µM and > 7.71 µM | TGI (SF-268 CNS): 24.5 µM and > 10 µM | GI50 (SF-295 CNS): 4.22 µM and > 8.07 µM | TGI (SF-295 CNS): 18.1 µM and > 10 µM | GI50 (SF-539 CNS): 6.04 µM | TGI (SF-539 CNS): 20.2 µM and > 10 µM | GI50 (SK-MEL-2 melanoma): 0.18 µM and 0.179 µM | TGI (SK-MEL-2 melanoma): 0.75 µM and 1.41 µM | GI50 (SK-MEL-28 melanoma): 0.126 µM and 0.0718 µM | GI50 (SK-MEL-5 melanoma): 0.64 µM and 0.752 µM | TGI (SK-MEL-5 melanoma): 7.82 µM and 9.83 µM | GI50 (SK-OV-3 ovarian): 3.23 µM and > 7.67 µM | TGI (SK-OV-3 ovarian): 18 µM and > 10 µM | GI50 (SN12C renal): 4.04 µM and > 4.03 µM | TGI (SN12C renal): 20.9 µM and > 10 µM | GI50 (SNB-19 CNS): 4.84 µM | TGI (SNB-19 CNS): 20.6 µM and > 10 µM | GI50 (SNB-75 CNS): 4.5 µM and > 5.45 µM | TGI (SNB-75 CNS): 19.8 µM and > 10 µM | GI50 (SR leukemia): 3.38 µM and 3.66 µM | TGI (SR leukemia): 40.5 µM and > 10 µM | GI50 (SW-620 colon): 0.249 µM and 0.296 µM | TGI (SW-620 colon): 16.7 µM and > 10 µM | GI50 (T-47D breast): 1.77 µM and > 5.23 µM | TGI (T-47D breast): 16.8 µM and > 10 µM | GI50 (TK-10 renal): 0.795 µM and 0.36 µM | TGI (TK-10 renal): 18.6 µM and > 10 µM | GI50 (U251 CNS): 1.71 µM and 1.09 µM | TGI (U251 CNS): 18 µM and > 10 µM | GI50 (UACC-257 melanoma): 0.0732 µM | TGI (UACC-257 melanoma): 0.519 µM | GI50 (UACC-62 melanoma): 0.0826 µM and 0.13 µM | TGI (UACC-62 melanoma): 12.3 µM and > 10 µM | GI50 (UO-31 renal): 0.986 µM and 0.838 µM | TGI (UO-31 renal): 14.5 µM and > 10 µM
